How the values were obtained:
[1] = test system: tramadol metabolism in human liver microsomes (HLM); assay: Liver microsomal incubation assay: inhibition of tramadol metabolism in HLM; type: in vitro ADME
Description: (§1) All the substance meet the requirements for analysis.
(§2) To obtain the Michaelis kinetic parameters of tramadol in RLM and HLM, a 200 µL incubation system was established containing 2 µL RLM or HLM (0.2 mg/mL), 186 µL 1xPBS buffer (pH = 7.4), 2 µL tramadol (10–500 µM), and 10 µL NADPH (1 mM). The mixture was pre-incubated for 5 min without NADPH in a water bath shaking at 37 °C. Then, NADPH was added to initiate the reaction, and the mixture was incubated for another 30 min. The reaction was terminated by adding 400 µL of cold ACN and 20 µL of IS (500 ng/mL).
(§3) To determine the half-maximal inhibitory concentration (IC50), the concentration of crizotinib was set at 0.01, 0.1, 1, 10, 25, 50, and 100 µM, while the concentration of tramadol was constant at 60 µM in RLM or 100 µM in HLM (according to Km).
(§4) All data were presented as mean ± SD (standard deviation).

[2] = test system: tramadol metabolism in human liver microsomes; assay: as above; type: in vitro ADME; conditions: human, human liver microsomes, pH 7.4, probe tramadol 100 µM, tramadol 100 µM, crizotinib 0.01-100 µM
Description: as §1, §2, §3, §4

[3] = Serum biochemical analysis (ALT, AST); type: in vivo, Sprague-Dawley rats; conditions: vs control
Description: (§5) Nine rats were randomly divided into three groups (n = 3): group E received 0.5% CMC-Na for 7 days; group F received 45 mg/kg crizotinib for 6 days; and group G received 45 mg/kg of crizotinib for 7 days. […] The blood, liver, kidney, and small intestine were harvested within 10 min and flash-frozen in liquid nitrogen before being transferred to −80 °C for later use.
Serum was collected after centrifugation of blood sample at 2400 × g for 5 min at 4 °C. The levels of ALT and AST were detected according to the protocol of ALT and AST activity assay kits.

CYP2D1 = target: T1, CYP2D1 (Rattus norvegicus, UniProt P10633); assay: Activity of CYP2D1 in liver microsomes of treated rats (dextromethorphan probe); type: in vitro ADME
T1 construct: All liver tissue samples were extracted into liver microsomes by homogenization and centrifugation; from tissue; host or cells: liver microsomes of Sprague-Dawley rats (control or dosed with crizotinib)
T1 sequence (P10633 1-504): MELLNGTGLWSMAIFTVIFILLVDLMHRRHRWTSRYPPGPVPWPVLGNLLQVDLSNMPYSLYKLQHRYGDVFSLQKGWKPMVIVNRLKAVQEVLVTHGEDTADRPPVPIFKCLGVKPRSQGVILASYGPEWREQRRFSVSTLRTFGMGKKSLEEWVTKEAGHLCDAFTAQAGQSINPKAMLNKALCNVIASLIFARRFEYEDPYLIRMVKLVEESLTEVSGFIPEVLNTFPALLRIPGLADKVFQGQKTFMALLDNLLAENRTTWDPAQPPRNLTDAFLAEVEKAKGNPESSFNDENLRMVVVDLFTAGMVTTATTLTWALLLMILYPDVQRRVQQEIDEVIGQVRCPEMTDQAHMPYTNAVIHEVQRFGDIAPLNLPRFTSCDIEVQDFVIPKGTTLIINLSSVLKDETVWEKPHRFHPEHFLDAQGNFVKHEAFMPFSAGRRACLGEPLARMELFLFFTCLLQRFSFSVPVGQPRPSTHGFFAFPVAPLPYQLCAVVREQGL
Description: as §5
(§6) All liver tissue samples were extracted into liver microsomes by homogenization and centrifugation, following the same operational steps as previously reported ([Simpson, 2010]). A new incubation system was established, which included 2 µL dextromethorphan or midazolam (the probe substrate of CYP2D1 or CYP3A2), 2 uL RLM (0.2 mg/mL) from different groups, 186 µL 1xPBS buffer, and 10 µL NADPH (1 mM). […] UPLC-MS/MS was used to detect the concentration of dextrorphan and 1-hydroxymidazolam to determine whether the activities of CYP2D1 and CYP3A2 in the liver were affected by crizotinib.

CYP3A2 = target: T2, CYP3A2 (Rattus norvegicus, UniProt P05183); assay: Activity of CYP3A2 in liver microsomes of treated rats (midazolam probe); type: in vitro ADME; conditions: RLM from crizotinib-treated rats (45 mg/kg); midazolam 10 µM
T2 construct: All liver tissue samples were extracted into liver microsomes by homogenization and centrifugation; from tissue; host or cells: liver microsomes of Sprague-Dawley rats (control or dosed with crizotinib)
T2 sequence (P05183 1-504): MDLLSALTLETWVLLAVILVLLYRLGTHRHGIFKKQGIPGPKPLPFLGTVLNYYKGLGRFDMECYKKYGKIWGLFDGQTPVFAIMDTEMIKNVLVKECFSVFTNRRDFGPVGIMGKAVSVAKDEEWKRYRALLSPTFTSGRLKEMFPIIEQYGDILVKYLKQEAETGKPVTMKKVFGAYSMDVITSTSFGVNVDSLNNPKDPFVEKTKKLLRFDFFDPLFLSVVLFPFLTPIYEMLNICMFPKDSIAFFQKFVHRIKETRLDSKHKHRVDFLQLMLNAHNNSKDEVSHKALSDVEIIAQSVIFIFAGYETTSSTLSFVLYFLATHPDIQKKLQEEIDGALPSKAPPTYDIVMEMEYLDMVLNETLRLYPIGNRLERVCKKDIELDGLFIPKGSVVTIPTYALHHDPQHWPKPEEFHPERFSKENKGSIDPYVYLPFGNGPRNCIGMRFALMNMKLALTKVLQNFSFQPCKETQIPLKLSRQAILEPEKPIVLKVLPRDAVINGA
Description: as §5, §6

[4] = crizotinib 45 mg/kg for consecutive 7 days
[5] = crizotinib 45 mg/kg single dose

With `C[C@@H](Oc1cc(-c2cnn(C3CCNCC3)c2)cnc1N)c1c(Cl)ccc(F)c1Cl` [crizotinib] the “inhibition mode of tramadol metabolism” value ([1]; Lineweaver-Burk plot) was “non-competitive”, the Ki ([1]; Lineweaver-Burk, crizotinib 0, 5, 10, 20 µM, tramadol 25-200 µM) was 14.4 µM and the IC50 at 30 min [2] was 11.9 ± 0.25 µM. The “level of serum ALT” value [3, 4] was “increased significantly”, the “level of serum AST” value [3, 4] was “increased significantly” and the “level of serum ALT” value [3, 5] was “no significant change”. The “level of serum AST” value [3, 5] was “no significant change”, the “metabolic rate of dextromethorphan (CYP2D1 activity)” value (CYP2D1; RLM from crizotinib-treated rats (45 mg/kg), dextromethorphan 25 µM) was “decreased to different extents” and the “metabolic rate of dextromethorphan (CYP2D1 activity)” value (CYP2D1; crizotinib administered for seven days) was “significant decrease”. The “metabolic rate of midazolam (CYP3A2 activity)” value (CYP3A2) was “decreased to different extents”.
